Results: the NIST ThermoML archive (doi:10.1021/acs.jced.5b00412)

Assay: wn = mass fraction of the nth substance listed
Conditions: 101.3 kPa, Liquid, Vibrating tube method

NCCCO [3-amino-1-propanol] + O
mass density [kg/m3]
Conditions | w1 = 0.1 | w1 = 0.2 | w1 = 0.3 | w1 = 0.41 | w1 = 0.51 | w1 = 0.61 | w1 = 0.7 | w1 = 0.8 | w1 = 0.91 | w1 = 1
293.15 K | 998.7 | 1002.2 | 1005.9 | 1008.8 | 1011.3 | 1015.4 | 1014.9 | 1009.8 | 1001.4 | 987.5
298.15 K | 997.3 | 1000.4 | 1003.7 | 1006 | 1008.2 | 1011.8 | 1011.2 | 1005.9 | 997.5 | 983.6
303.15 K | 995.7 | 998.4 | 1001.3 | 1003.1 | 1005 | 1008 | 1007.3 | 1002 | 993.5 | 979.6
308.15 K | 993.9 | 996.3 | 998.8 | 1000.1 | 1001.8 | 1003.9 | 1003.4 | 998 | 989.5 | 975.5
313.15 K | 991.9 | 994 | 996.2 | 997.1 | 998.5 | 1001 | 999.2 | 994 | 985.5 | 971.5
318.15 K | 989.7 | 991.6 | 993.3 | 993.9 | 995 | 997.2 | 995.6 | 990 | 981.5 | 967.5
323.15 K | 987.3 | 989 | 990.6 | 990.6 | 991.5 | 993.3 | 991.7 | 986 | 977.5 | 963.4
328.15 K | 984.8 | 986.3 | 987.6 | 987.9 | 988 | 989.5 | 987.8 | 981.9 | 973.4 | 959.3
333.15 K | 983 | 983.5 | 984.5 | 984.5 | 984.4 | 985.6 | 983.9 | 977.7 | 969.3 | 955.8
338.15 K | 980.3 | 980.5 | 981.3 | 981.9 | 980.8 | 981.6 | 979.9 | 973.2 | 965.2 | 951.7
343.15 K | 977.5 | 977.5 | 978 | 978.3 | 977.5 | 977.6 | 975.8 | 969.1 | 961 | 947.6
348.15 K | 974.5 | 974.3 | 974.6 | 974.7 | 972.9 | 973.6 | 971.6 | 965.1 | 956.9 | 943.5
353.15 K | 971.2 | 971 | 971.1 | 971.1 | 970.8 | 969.5 | 967.4 | 961.2 | 952.7 | 939.3
